In BindingDB's records for patent US12440494 (Albert Einstein College of Medicine, 2025):

Molecular target: Serine/threonine-protein kinase B-raf [V600E] (Homo sapiens, UniProt P15056, V600E)
Assay: Kinase Activity Assay
Procedure: BRAF kinase assays were performed using the Z′-LYTE™ enzymatic assay (Invitrogen, USA). […] Titrations were performed using a 1:3 dilution. Assays were performed using Select Screen (Invitrogen).

Chain of Serine/threonine-protein kinase B-raf [V600E] (P15056 2-766 V600E limits assumed): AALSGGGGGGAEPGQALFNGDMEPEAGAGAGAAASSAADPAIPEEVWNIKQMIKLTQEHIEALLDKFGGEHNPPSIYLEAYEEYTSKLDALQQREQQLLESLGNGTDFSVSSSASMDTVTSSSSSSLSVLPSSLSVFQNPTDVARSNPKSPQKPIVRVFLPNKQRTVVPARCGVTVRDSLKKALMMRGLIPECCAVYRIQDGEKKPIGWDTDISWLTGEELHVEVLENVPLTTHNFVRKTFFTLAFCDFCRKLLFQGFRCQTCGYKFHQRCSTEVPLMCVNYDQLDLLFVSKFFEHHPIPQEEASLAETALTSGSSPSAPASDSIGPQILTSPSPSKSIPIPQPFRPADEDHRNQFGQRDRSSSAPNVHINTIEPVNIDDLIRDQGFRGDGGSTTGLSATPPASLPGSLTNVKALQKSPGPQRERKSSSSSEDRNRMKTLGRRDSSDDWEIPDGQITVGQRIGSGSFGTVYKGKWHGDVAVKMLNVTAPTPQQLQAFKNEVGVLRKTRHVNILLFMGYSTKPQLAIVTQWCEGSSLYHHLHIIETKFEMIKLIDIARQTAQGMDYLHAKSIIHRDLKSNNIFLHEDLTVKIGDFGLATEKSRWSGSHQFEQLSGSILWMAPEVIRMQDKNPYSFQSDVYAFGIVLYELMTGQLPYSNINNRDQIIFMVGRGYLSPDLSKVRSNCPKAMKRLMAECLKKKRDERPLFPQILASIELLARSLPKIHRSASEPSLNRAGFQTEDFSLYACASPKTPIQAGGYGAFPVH

In the case of COC(=O)N1CCN(CCNCc2ccc(NC(=O)c3ccc(C)c(C#Cc4cnc5cccnn45)c3)cc2C(F)(F)F)CC1 [US12440494, Compound 2], the IC50 is reported as 17.8 nM.
